pIC50: −log10 of the molar value. Values joined by “and” are separate entries in the source; they are usually repeats but may differ in a detail not shown here. Equal values may be shown once.
Key:
[1] = target: T1, angiotensin II receptor, site 2 (AT-2 receptor) (Rattus norvegicus, UniProt P35351); experiment: Receptor assay using rat adrenal gland preparation (125I-Angiotensin II binding), site 2
T1 construct: Adrenal membranes for the receptor assay were readied first by placing cleaned, whole adrenal glands in microcentrifuge tubes; from tissue; host or cells: rat adrenal glands (whole), membranes
T1 sequence (P35351 1-363): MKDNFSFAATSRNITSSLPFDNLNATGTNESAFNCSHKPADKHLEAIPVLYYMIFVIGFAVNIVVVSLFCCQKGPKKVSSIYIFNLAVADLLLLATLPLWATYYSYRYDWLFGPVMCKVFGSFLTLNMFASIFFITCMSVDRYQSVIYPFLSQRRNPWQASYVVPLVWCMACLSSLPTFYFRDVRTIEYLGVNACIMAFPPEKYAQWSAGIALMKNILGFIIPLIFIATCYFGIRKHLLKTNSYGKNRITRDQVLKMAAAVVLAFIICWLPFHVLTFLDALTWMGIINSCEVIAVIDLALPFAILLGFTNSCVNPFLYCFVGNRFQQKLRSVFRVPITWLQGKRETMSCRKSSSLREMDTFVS
Excerpt: Angiotensin II (AII) is a powerful arterial vasoconstrictor, and it exerts its action by interacting with specific receptors present on cell membranes. The compounds of the present invention are competitive antagonists of AII at receptor sites. The usefulness of compounds as AII antagonists may be determined from the results of certain receptor binding assays. The initial assay is that using rat adrenal glands and the results of this assay are described herein.
Receptor assay using rat adrenal gland preparation
Adrenal membranes for the receptor assay were readied first by placing cleaned, whole adrenal glands in microcentrifuge tubes (20 glands per tube), and freezing and storing under liquid nitrogen. As needed, a microcentrifuge tube of adrenal glands was homogenized in 20 ml 50 mM Tris-HCl pH 7.7 and centrifuged at 20,000 rpm for 15 minutes at 4° C. […]
For the assay, the adrenal membrane preparation in one vial was resuspended in 30 ml of 100 mM Tris-HCl pH 7.4 with 5 mM MgCl2, 0.2% bovine serum albumin and 0.2 mg/ml bacitracin. […] The vials are counted with a gamma counter for one minute and percent inhibition determined from counts/min (CPM) as follows: [formula] The IC50 is determined by plotting percent inhibition v. concentration of compound tested.

[2] = target: T2, angiotensin II receptor, site 1 (Oryctolagus cuniculus, UniProt P34976); experiment: Receptor binding assay using rabbit aortae membrane preparation (125I-Sar1 Ile8-angiotensin II), site 1; conditions: rabbit aortae membranes, 37° C., 90 minutes
T2 construct: tissue Pel-Freeze Biologicals; host or cells: rabbit aorta, membranes
T2 sequence (P34976 1-359): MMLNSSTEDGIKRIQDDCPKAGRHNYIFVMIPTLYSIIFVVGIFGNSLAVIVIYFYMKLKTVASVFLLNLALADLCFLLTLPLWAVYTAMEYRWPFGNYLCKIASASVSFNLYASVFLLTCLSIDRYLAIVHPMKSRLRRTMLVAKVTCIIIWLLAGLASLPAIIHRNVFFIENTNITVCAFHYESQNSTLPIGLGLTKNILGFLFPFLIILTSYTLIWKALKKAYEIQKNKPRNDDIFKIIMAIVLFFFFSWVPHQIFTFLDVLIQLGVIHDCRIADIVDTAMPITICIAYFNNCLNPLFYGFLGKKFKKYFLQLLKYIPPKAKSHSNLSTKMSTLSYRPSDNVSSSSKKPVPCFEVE
Procedure: On positive results with rat adrenal gland assay, assays using rabbit aorta may be employed.
Receptor binding assay using rabbit aortae membrane preparation
Three frozen rabbit aortae (obtained from Pel-Freeze Biologicals) were suspended in 5 mM Tris-0.25M Sucrose, pH 7.4 buffer (50 mL) homogenized, and then centifuged. The mixture was filtered through a cheesecloth and the supernatant was centrifuged for 30 minutes at 20,000 rpm at 4° C. The pellet thus obtained was resuspended in 30 mL of 50 mM Tris-5 mM MgCl2 buffer containing 0.2% Bovine Serum Albumin and 0.2 mg/mL Bacitracin and the suspension was used for 100 assay tubes. Samples tested for screening were done in duplicate. To the membrane preparation (0.25 mL) there was added ^125 I-Sar^1 Ile^8 -angiotensin II [obtained from New England Nuclear] ([…]; 20,000 cpm) with or without the test sample and the mixture was incubated at 37° C. for 90 minutes. The mixture was then diluted with ice-cold 50 mM Tris-0.9% NaCl, pH 7.4 (4 mL) and filtered through a glass fiber filter (GF/B Whatman 2.4" diameter). The filter was soaked in scintillation cocktail (10 mL) and counted for radioactivity using Packard 2660 Tricarb liquid scintillation counter. […]

How did the pIC50 ([1]; rat adrenal membranes, 37° C., 90 minutes, site 2) turn out when `CCCCCC1=C(C=O)C2OC(C)(C)C(O)CC23OC3C1=O` (stereo not drawn) [Compound A] was run?
Its pIC50 is 5.49 to 5.79 and 5.70 to 6.00.

What about the “antagonist activity at AT-2 receptor sites” value ([1]; statement in words) of the same molecule?
The value was “antagonist activity at AT-2 receptor sites”.

What about the pIC50 [2] of the same molecule?
Its pIC50 is 4.59.
